Experimental data taken from ChEMBL document CHEMBL1201862, “PubChem BioAssay data set” (2004).
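In this assay, cells in 96-well plates receive the compound at five concentrations for 48 hours. Endpoints are linearly interpolated between the surrounding concentrations. GI50 is the concentration that inhibits growth by half.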 The source made the active and inactive calls. No stated cut-off is given here; in the data, active = GI50 up to about 1.1 µM and inactive = higher.

Columns and labels:
Test in all cases: NCI-60 cell line screen, 48 h
786-0 = test system: 786-0
A498 = test system: A498
A549 = test system: A549
ACHN = test system: ACHN
BT-549 = test system: BT-549
CAKI-1 = test system: CAKI-1
CCRF-CEM = test system: CCRF-CEM
COLO 205 = test system: COLO 205
DU-145 = test system: DU-145
EKVX = test system: EKVX
HCC 2998 = test system: HCC 2998
HCT-116 = test system: HCT-116
HCT-15 = test system: HCT-15
HL-60 = test system: HL-60
HOP-62 = test system: HOP-62
HOP-92 = test system: HOP-92
HT-29 = test system: HT-29
Hs-578T = test system: Hs-578T
IGROV-1 = test system: IGROV-1
K562 = test system: K562
KM12 = test system: KM12
LOX IMVI = test system: LOX IMVI
M14 = test system: M14
MCF7 = test system: MCF7
MDA-MB-231 = test system: MDA-MB-231
MDA-MB-435 = test system: MDA-MB-435
MDA-N = test system: MDA-N
MOLT-4 = test system: MOLT-4
Malme-3M = test system: Malme-3M
NCI-H226 = test system: NCI-H226
NCI-H23 = test system: NCI-H23
NCI-H460 = test system: NCI-H460
NCI-H522 = test system: NCI-H522
OVCAR-3 = test system: OVCAR-3
OVCAR-4 = test system: OVCAR-4
OVCAR-5 = test system: OVCAR-5
OVCAR-8 = test system: OVCAR-8
PC-3 = test system: PC-3
RPMI-8226 = test system: RPMI-8226
SF-268 = test system: SF-268
SF-295 = test system: SF-295
SF-539 = test system: SF-539
SK-MEL-28 = test system: SK-MEL-28
SK-MEL-2 = test system: SK-MEL-2
SK-MEL-5 = test system: SK-MEL-5
SK-OV-3 = test system: SK-OV-3
SN12C = test system: SN12C
SNB-19 = test system: SNB-19
SNB-75 = test system: SNB-75
SR = test system: SR
SW-620 = test system: SW-620
T47D = test system: T47D
TK-10 = test system: TK-10
U-251 = test system: U-251
UACC-257 = test system: UACC-257
UACC-62 = test system: UACC-62
NCI/ADR-RES = test system: NCI/ADR-RES
RXF 393 = test system: RXF 393
UO-31 = test system: UO-31

Measured: GI50

Cc1c(Cl)cccc1NC(=O)/C=C/c1ccccc1
inactive: 786-0 62.7 µM | A498 > 100 µM | A549 > 100 µM | ACHN 89.5 µM | BT-549 > 100 µM | CAKI-1 16.3 µM | CCRF-CEM > 100 µM | COLO 205 > 100 µM | DU-145 > 100 µM | EKVX 55.8 µM | HCC 2998 > 100 µM | HCT-116 > 100 µM | HL-60 > 100 µM | HOP-62 > 100 µM | HOP-92 21 µM | HT-29 > 100 µM | Hs-578T 38.3 µM | IGROV-1 > 100 µM | K562 > 100 µM | KM12 77.8 µM | LOX IMVI > 100 µM | M14 > 100 µM | MCF7 > 100 µM | MDA-MB-231 17.7 µM | MDA-MB-435 > 100 µM | MDA-N > 100 µM | MOLT-4 > 100 µM | Malme-3M > 100 µM | NCI-H226 60.1 µM | NCI-H23 > 100 µM | NCI-H460 > 100 µM | NCI-H522 > 100 µM | OVCAR-3 > 100 µM | OVCAR-4 > 100 µM | OVCAR-5 > 100 µM | OVCAR-8 38 µM | PC-3 > 100 µM | RPMI-8226 97.9 µM | SF-268 74.1 µM | SF-295 > 100 µM | SF-539 43 µM | SK-MEL-28 88.5 µM | SK-MEL-2 > 100 µM | SK-MEL-5 > 100 µM | SK-OV-3 > 100 µM | SN12C > 100 µM | SNB-19 45.6 µM | SNB-75 22.8 µM | SR 50.7 µM | SW-620 > 100 µM | T47D > 100 µM | TK-10 > 100 µM | U-251 > 100 µM | UACC-257 > 100 µM | UACC-62 > 100 µM
> 100000 nM: HCT-15

COc1cc2c3c(c4ccc(OC)c(OC)c4c2cc1OC)CN1CCC[C@@H]1C3 [TYLOCREBRINE]
active: 786-0 < 0.0173 µM | A498 < 0.01 µM | A549 0.0251 µM | ACHN 0.0444 µM | BT-549 0.0914 µM | CAKI-1 < 0.0216 µM | CCRF-CEM 0.0269 µM | COLO 205 0.0228 µM | DU-145 0.0248 µM | EKVX 0.0172 µM | HCC 2998 0.0533 µM | HCT-116 0.0266 µM | HL-60 0.0343 µM | HOP-62 0.0316 µM | HOP-92 < 0.0246 µM | HT-29 0.0208 µM | Hs-578T 0.0182 µM | IGROV-1 0.0407 µM | K562 0.0191 µM | KM12 0.0428 µM | LOX IMVI 0.0249 µM | M14 0.0333 µM | MCF7 0.0548 µM | MDA-MB-231 0.0204 µM | MDA-MB-435 0.0365 µM | MDA-N 0.0622 µM | MOLT-4 0.043 µM | Malme-3M 0.0248 µM | NCI-H226 < 0.0176 µM | NCI-H23 0.016 µM | NCI-H460 0.0392 µM | NCI-H522 0.0313 µM | NCI/ADR-RES < 16.6 nM | OVCAR-3 0.107 µM | OVCAR-4 0.0301 µM | OVCAR-5 0.0745 µM | OVCAR-8 < 0.0146 µM | PC-3 0.0582 µM | RPMI-8226 0.0325 µM | RXF 393 < 15.5 nM | SF-268 < 0.0171 µM | SF-295 0.0395 µM | SF-539 0.0191 µM | SK-MEL-28 0.0307 µM | SK-MEL-2 < 0.0153 µM | SK-MEL-5 0.0292 µM | SK-OV-3 0.124 µM | SN12C 0.0564 µM | SNB-19 0.0163 µM | SNB-75 < 0.01 µM | SR 0.0365 µM | SW-620 0.0586 µM | TK-10 0.0574 µM | U-251 0.019 µM | UACC-257 0.0612 µM | UACC-62 < 0.01 µM | UO-31 < 10 nM
31.2 nM: HCT-15
